Experimental findings from article PMC4912077 (PLoS ONE, 2016) are described below.

One assay addresses H3 (Homo sapiens, UniProt Q9Y5N1). Put plainly: NIMH PDSP radioligand binding, H3. As to the method: Radioligands and concentrations used for additional 45 CNS receptor binding assays are listed as supporting information (S1 Table). This work was performed by the National Institute of Mental Health Psychoactive Drug Screening Program (NIMH PDSP) as described previously.[26] Briefly target compounds were dissolved in DMSO and subjected to a primary screen at 10,000 nM concentration. […] Additional experimental details are available in the NIMH PDSP assay protocol book.

A further assay deals with M2 (Homo sapiens, UniProt P08172). Put plainly: NIMH PDSP radioligand binding, M2.
Sequence of M2 (P08172 whole entry): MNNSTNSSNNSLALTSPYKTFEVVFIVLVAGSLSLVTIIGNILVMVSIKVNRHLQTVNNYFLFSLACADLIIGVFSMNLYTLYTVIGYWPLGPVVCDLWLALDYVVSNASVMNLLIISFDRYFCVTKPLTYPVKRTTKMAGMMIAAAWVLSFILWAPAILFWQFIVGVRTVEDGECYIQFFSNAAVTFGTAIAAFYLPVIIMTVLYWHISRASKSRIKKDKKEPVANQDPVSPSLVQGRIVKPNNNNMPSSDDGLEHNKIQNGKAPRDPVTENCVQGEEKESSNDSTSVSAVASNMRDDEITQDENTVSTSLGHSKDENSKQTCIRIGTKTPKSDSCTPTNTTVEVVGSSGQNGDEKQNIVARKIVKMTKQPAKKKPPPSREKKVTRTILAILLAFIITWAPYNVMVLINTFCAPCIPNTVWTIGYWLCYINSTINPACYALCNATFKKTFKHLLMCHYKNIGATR

Sequence of H3 (Q9Y5N1 whole entry): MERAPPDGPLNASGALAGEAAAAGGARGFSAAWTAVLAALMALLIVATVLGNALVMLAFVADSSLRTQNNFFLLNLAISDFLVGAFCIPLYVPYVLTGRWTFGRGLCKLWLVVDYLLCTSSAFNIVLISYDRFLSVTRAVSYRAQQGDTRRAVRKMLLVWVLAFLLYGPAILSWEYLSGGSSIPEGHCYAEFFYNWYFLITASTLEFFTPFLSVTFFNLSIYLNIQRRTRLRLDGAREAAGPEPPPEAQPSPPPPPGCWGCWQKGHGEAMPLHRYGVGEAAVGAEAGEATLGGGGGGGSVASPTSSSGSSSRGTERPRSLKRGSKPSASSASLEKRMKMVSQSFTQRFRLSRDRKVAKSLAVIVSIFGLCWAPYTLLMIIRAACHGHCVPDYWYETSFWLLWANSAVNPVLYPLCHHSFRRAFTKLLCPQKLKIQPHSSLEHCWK

One may read the Ki as the dissociation constant of the complex between target and ligand, obtained from inhibition or displacement. Consider `c1ccc(CC(c2ccccc2)N2CCCCC2)cc1` (centres unmarked) [DPH, diphenidine], for which the figures for the Ki on H3 and at M2 were 1020 nM and 3700 nM, respectively.
